Measurements taken from PubChem BioAssay AID1963964 (Molecular Pharmacology Branch, DTP, NCI, 2024).

Tested on: 997726-040-R-J2-PDC tumor spheroids, viability
Test: Anticancer human tumor 997726-040-R-J2-PDC patient-derived squamous cell lung carcinoma cell line growth inhibition [PI3K]
Conditions: spheroids with HUVEC and MSC; for IC50: curve of first compound; for viability, T/C: stronger effect = lower value
How it was run: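 High-throughput combination screen: PI3K inhibitors crossed with targeted small molecules on complex spheroids of tumor cells, HUVEC and MSCs at 37 degrees C, 5% CO2. Top concentration was at or near clinical Cmax (otherwise 10 microM), with half-log decrements.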

[1] = second compound 0.0316 µM, first compound 0.0316 µM
[2] = second compound 0.0316 µM, first compound 0.1 µM
[3] = second compound 0.0316 µM, first compound 0.316 µM
[4] = second compound 0.0316 µM, first compound 1 µM
[5] = second compound 0.0316 µM, first compound 3.16 µM
[6] = second compound 0.0316 µM, first compound 10 µM
[7] = second compound 0.1 µM, first compound 0.0316 µM
[8] = second compound 0.1 µM, first compound 0.1 µM
[9] = second compound 0.1 µM, first compound 0.316 µM
[10] = second compound 0.1 µM, first compound 1 µM
[11] = second compound 0.1 µM, first compound 3.16 µM
[12] = second compound 0.1 µM, first compound 10 µM
[13] = second compound 0.316 µM, first compound 0.0316 µM
[14] = second compound 0.316 µM, first compound 0.1 µM
[15] = second compound 0.316 µM, first compound 0.316 µM
[16] = second compound 0.316 µM, first compound 1 µM
[17] = second compound 0.316 µM, first compound 3.16 µM
[18] = second compound 0.316 µM, first compound 10 µM
[19] = second compound 1 µM, first compound 0.0316 µM
[20] = second compound 1 µM, first compound 0.1 µM
[21] = second compound 1 µM, first compound 0.316 µM
[22] = second compound 1 µM, first compound 1 µM
[23] = second compound 1 µM, first compound 3.16 µM
[24] = second compound 1 µM, first compound 10 µM
[25] = second compound 3.16 µM, first compound 0.0316 µM
[26] = second compound 3.16 µM, first compound 0.1 µM
[27] = second compound 3.16 µM, first compound 0.316 µM
[28] = second compound 3.16 µM, first compound 1 µM
[29] = second compound 3.16 µM, first compound 3.16 µM
[30] = second compound 3.16 µM, first compound 10 µM
[31] = second compound 10 µM, first compound 0.0316 µM
[32] = second compound 10 µM, first compound 0.1 µM
[33] = second compound 10 µM, first compound 0.316 µM
[34] = second compound 10 µM, first compound 1 µM
[35] = second compound 10 µM, first compound 3.16 µM
[36] = second compound 10 µM, first compound 10 µM
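Also: spheroids exposed to compounds for seven days before readout.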

C#Cc1c(F)ccc2cc(O)cc(-c3ncc4c(N5CC6CCC(C5)N6)nc(OCC56CCCN5CC(F)C6)nc4c3F)c12 (stereo unspecified) + CC(Nc1ncnc2nc[nH]c12)c1cc2cccc(Cl)c2c(=O)n1-c1ccccc1
IC50 (second compound 0.0316 µM): > 10 µM
IC50 (second compound 0.1 µM): > 10 µM
IC50 (second compound 0.316 µM): > 10 µM
IC50 (second compound 1 µM): > 10 µM
IC50 (second compound 3.16 µM): > 10 µM
IC50 (second compound 10 µM): < 0.0316 µM
viability, T/C [1]: 90.6%
viability, T/C [2]: 99.3%
viability, T/C [3]: 101%
viability, T/C [4]: 85.7%
viability, T/C [5]: 88.1%
viability, T/C [6]: 96%
viability, T/C [7]: 101%
viability, T/C [8]: 96.5%
viability, T/C [9]: 83.3%
viability, T/C [10]: 97.6%
viability, T/C [11]: 82.1%
viability, T/C [12]: 73.3%
viability, T/C [13]: 97.1%
viability, T/C [14]: 103%
viability, T/C [15]: 98%
viability, T/C [16]: 94%
viability, T/C [17]: 95.7%
viability, T/C [18]: 61.5%
viability, T/C [19]: 87.3%
viability, T/C [20]: 93.8%
viability, T/C [21]: 82.7%
viability, T/C [22]: 84.6%
viability, T/C [23]: 79.9%
viability, T/C [24]: 63.5%
viability, T/C [25]: 71.6%
viability, T/C [26]: 68.3%
viability, T/C [27]: 61.4%
viability, T/C [28]: 72.3%
viability, T/C [29]: 65.3%
viability, T/C [30]: 57.7%
viability, T/C [31]: 49.1%
viability, T/C [32]: 50.1%
viability, T/C [33]: 45.3%
viability, T/C [34]: 45.5%
viability, T/C [35]: 39.1%
viability, T/C [36]: 35.1%

C=CC(=O)N1CCN(c2nc(=O)n(-c3c(C)ccnc3C(C)C)c3nc(-c4c(O)cccc4F)c(F)cc23)C(C)C1 (stereo unspecified) + CC(Nc1ncnc2nc[nH]c12)c1cc2cccc(Cl)c2c(=O)n1-c1ccccc1
IC50 (second compound 0.0316 µM): > 10 µM
IC50 (second compound 0.1 µM): > 10 µM
IC50 (second compound 0.316 µM): > 10 µM
IC50 (second compound 1 µM): > 10 µM
IC50 (second compound 3.16 µM): > 10 µM
IC50 (second compound 10 µM): > 10 µM
viability, T/C [1]: 91.5%
viability, T/C [2]: 112%
viability, T/C [3]: 107%
viability, T/C [4]: 106%
viability, T/C [5]: 123%
viability, T/C [6]: 130%
viability, T/C [7]: 108%
viability, T/C [8]: 103%
viability, T/C [9]: 101%
viability, T/C [10]: 104%
viability, T/C [11]: 113%
viability, T/C [12]: 126%
viability, T/C [13]: 104%
viability, T/C [14]: 95%
viability, T/C [15]: 104%
viability, T/C [16]: 102%
viability, T/C [17]: 133%
viability, T/C [18]: 113%
viability, T/C [19]: 86.7%
viability, T/C [20]: 86.4%
viability, T/C [21]: 92.7%
viability, T/C [22]: 98.4%
viability, T/C [23]: 120%
viability, T/C [24]: 109%
viability, T/C [25]: 72.2%
viability, T/C [26]: 75.4%
viability, T/C [27]: 78.9%
viability, T/C [28]: 85.3%
viability, T/C [29]: 96.2%
viability, T/C [30]: 95.6%
viability, T/C [31]: 58.1%
viability, T/C [32]: 51%
viability, T/C [33]: 60.8%
viability, T/C [34]: 55.8%
viability, T/C [35]: 64.7%
viability, T/C [36]: 68.8%

CC(Cn1ccc(-c2ccc(C#N)c(Cl)c2)n1)NC(=O)c1cc(C(C)O)[nH]n1 (stereo unspecified) + CC(Nc1ncnc2nc[nH]c12)c1cc2cccc(Cl)c2c(=O)n1-c1ccccc1
IC50 (second compound 0.0316 µM): > 10 µM
IC50 (second compound 0.1 µM): > 10 µM
IC50 (second compound 0.316 µM): > 10 µM
IC50 (second compound 1 µM): > 10 µM
IC50 (second compound 3.16 µM): > 10 µM
IC50 (second compound 10 µM): > 10 µM
viability, T/C [1]: 100%
viability, T/C [2]: 88.5%
viability, T/C [3]: 104%
viability, T/C [4]: 109%
viability, T/C [5]: 100%
viability, T/C [6]: 105%
viability, T/C [7]: 108%
viability, T/C [8]: 100%
viability, T/C [9]: 109%
viability, T/C [10]: 96.4%
viability, T/C [11]: 116%
viability, T/C [12]: 108%
viability, T/C [13]: 94.3%
viability, T/C [14]: 92.1%
viability, T/C [15]: 95.1%
viability, T/C [16]: 92.6%
viability, T/C [17]: 101%
viability, T/C [18]: 98.2%
viability, T/C [19]: 93.9%
viability, T/C [20]: 88.4%
viability, T/C [21]: 91.6%
viability, T/C [22]: 87.2%
viability, T/C [23]: 91.5%
viability, T/C [24]: 88.2%
viability, T/C [25]: 78.1%
viability, T/C [26]: 70.5%
viability, T/C [27]: 71.2%
viability, T/C [28]: 68.9%
viability, T/C [29]: 80.9%
viability, T/C [30]: 72.5%
viability, T/C [31]: 51.5%
viability, T/C [32]: 56.2%
viability, T/C [33]: 48.9%
viability, T/C [34]: 53.7%
viability, T/C [35]: 51.5%
viability, T/C [36]: 52.8%
